This note sets out measurements from patent US20250134917A1, “COMPOSITIONS AND METHODS OF REGENERATING HEART TISSUES WITH AMINOGLYCOSIDES” (The Board of Regents of The University of Texas System, priority 2022, published 2025).

The subject of test [1] is Meis1 transcriptional activity. In words: Meis1 luciferase transcriptional activity assay in NRVMs. The conditions noted are these: 10-500 nM, compared to control (PBS for neomycin, paromomycin; DMSO for rutin, hesperidin). Type of test: cell-based, rat. An excerpt:
(§1) S1: HOXB13 DNA binding domain, S2: Meis1 DNA binding domain, and S3: Interacting interface between Meis1 and HOXB13 (PDB ID: 5EGO). […] Data are mean±s.e.m.; unpaired two-sided t-test. * P<0.05, ** P<0.01, *** P<0.001.

Test [2] deals with HOXB13 transcriptional activity. Put plainly: HOXB13 luciferase transcriptional activity assay in NRVMs. It is filed as cell-based, rat. As to conditions: 10-500 nM, compared to control (PBS for neomycin, paromomycin; DMSO for rutin, hesperidin).
Text: as §1

Test [3] relates to cardiomyocytes in the adult heart. In words: Cardiomyocyte proliferation in adult mice with no injury stimuli. It is filed as in vivo, mouse. Here is the method:
In another exemplary method, cardiomyocyte proliferation in mice was assessed in the presence of paromomycin and paromomycin-neomycin. Based on the data resulting from the in vitro screening coupled and luciferase transcription activity assays detailed in the exemplary methods herein, paromomycin was initially selected to study its capacity to prolong cardiomyocytes proliferation in adult mice with no injury stimuli. The effect of paromomycin (Paro) (200 mg/kg/day, i.p.) and paromomycin-neomycin (Paro/Neo) combo (300 mg/kg/day, i.p.) was assessed after 2 weeks of injection on cell proliferation indices, cytokinesis, cardiomyocyte cell size, isolated cardiac cell count, and nucleation on the isolated cardiomyocytes in the adult heart (FIG. 3A, FIG. 4F). […] Animals. Mice were housed in a 12:12 h light: dark cycle in a temperature-controlled room with free access to water and food. Littermate controls were used whenever possible. Both male and female mice were used on age-matched and gender-matched mice. No statistical methods were used to predetermine sample size. All surgeries and echocardiographic studies were carried out blinded to the genotype of the mice during the experiments and outcome assessments. CD1 mice (Charles River Laboratories) were used for drug-tested studies. Drug administration. Tamoxifen (Sigma) was prepared by dissolving in sesame oil (Sigma) to a concentration of 10 mg ml^-1. For the MADM clonal analysis, 14 consecutive injections of tamoxifen were administered, and mice were euthanized 2 weeks after the last injection. For injection of Paromomycin and Neomycin, mice were administered twice daily. Mice were euthanized at the same time of day to limit circadian variability. Immunofluorescence staining. Heart cryosections were equilibrated with antigen retrieval buffer with 1 mM EDTA or epitope retrieval buffer (IHC World). Samples were permeabilized and blocked with 0.3% Triton X-100 and 10% serum from the host animal of secondary antibodies in PBS for 20 minutes at room temperature. Then, samples were incubated overnight at 4° C. with the primary antibodies. After three washes with PBS, samples were incubated for 1 hour at room temperature with corresponding fluorescence secondary antibodies conjugated to Alexa Fluor 488 or 555 (Invitrogen) at 1:400. The slides were mounted in Vectashield Antifade Mounting Medium (Vector Laboratories). Slides were viewed under Nikon fluorescence or Zeiss LSM 510 confocal microscopes. Primary antibodies used: phospho histone […] (EMD Millipore, 06-570; 1:100), aurora B kinase (Sigma, A5102; 1:25) to analyse cell cycle re-entry; troponin T, cardiac isoform Ab-1, clone 13-11 (Thermo Scientific, MS-295-P1; 1:200), sarcomeric α-actinin (Abcam, ab68167; 1:200) to identify cardiomyocytes. DAPI or Hoechst was used for nuclear staining. Images were obtained using a Nikon Eclipse Ni or Nikon A1 laser scanning confocal microscopes. WGA staining and cardiomyocyte size quantification. WGA staining and quantification was performed as previously described. In brief, the slides were incubated with WGA conjugated to Alexa Fluor 488 ([…], Life Technologies) for 1 hour at room temperature following washing with PBS. To quantify the cross-sectional cell size, three to five independent hearts per group with three different views and positions, each from left and right ventricles, and septum were captured at 40× magnification. ImageJ was used to quantify the size of cardiomyocytes that were round and contained a nucleus. At least 500 cells per sample were quantified. Cardiomyocyte isolation. Adult hearts were freshly collected and fixed in 4% paraformaldehyde at 4° C. overnight. The hearts were minced to smaller pieces and subsequently incubated with collagenase D (2.4 mg ml^-1, Roche) and B (1.8 mg ml^-1, Roche) for 12 h at 37° C. using an end-over-end shaker. The supernatants were collected via 160-μm nylon mesh filter, and the procedure was repeated until no more cardiomyocytes were dissociated from the tissue. […]

For test [4], the system named is cardiomyocytes of neonatal heart. In words: Cardiomyocyte proliferation in neonatal CD-1 mice. As to conditions: 300 mg/kg, i.p from p1 till p14, compared with controls. Type of test: in vivo, mouse. Here is the method: Paromomycin-neomycin was administered to neonatal CD-1 mice at 300 mg/kg, i.p from p1 till p14. Hearts were collected for histological analysis (FIG. 4A).
Immunofluorescence staining. Heart cryosections were equilibrated with antigen retrieval buffer with 1 mM EDTA or epitope retrieval buffer (IHC World). Samples were permeabilized and blocked with 0.3% Triton X-100 and 10% serum from the host animal of secondary antibodies in PBS for 20 minutes at room temperature. Then, samples were incubated overnight at 4° C. with the primary antibodies. After three washes with PBS, samples were incubated for 1 hour at room temperature with corresponding fluorescence secondary antibodies conjugated to Alexa Fluor 488 or 555 (Invitrogen) at 1:400. The slides were mounted in Vectashield Antifade Mounting Medium (Vector Laboratories). Slides were viewed under Nikon fluorescence or Zeiss LSM 510 confocal microscopes. Primary antibodies used: phospho histone H3 Ser10 (EMD Millipore, 06-570; 1:100), aurora B kinase (Sigma, A5102; 1:25) to analyse cell cycle re-entry; troponin T, cardiac isoform Ab-1, clone 13-11 (Thermo Scientific, MS-295-P1; 1:200), sarcomeric α-actinin (Abcam, ab68167; 1:200) to identify cardiomyocytes. DAPI or Hoechst was used for nuclear staining. Images were obtained using a Nikon Eclipse Ni or Nikon A1 laser scanning confocal microscopes.

The test system of test [5] is mouse adult heart after myocardial infarction (MI). In words: Cardiac repair after myocardial infarction (LAD ligation) in adult mice. Type of test: in vivo. Here is the method: In another exemplary method, the ability of the aminoglycosides on cardiac repair and heart regeneration was assessed in the mouse adult heart after following myocardial infarction (MI). MI was induced in adult mice by permanent ligation of the proximal left anterior descending coronary artery. This was followed by examining the expression of cell cycle inhibitors two weeks after MI (one week after drug(s) injection) by western blot analysis. […] Meanwhile, MI was induced to monitor the pharmacodynamics of the administered drug(s) to improve cardiac function and promote heart regeneration for 8-weeks (FIG. 5A). One week after injury, paromomycin and paromomycin-neomycin combo (200 mg/kg/day, i.p.) was administered while assessment of left ventricular ejection fraction (LVEF) by echocardiography was performed 1-week post-surgery, 1 week after drug(s) administration and every 2 weeks thereafter until 8 weeks post-surgery. Murine model of MI. Induction of adult anterior wall MI was performed as similar to the methods described in Nguyen et al., Nature (2020) 582, 271-276, the disclosure of which is incorporated herein in its entirety. In brief, three-month-old mice were subjected to MI by ligation of the proximal aspect of the LAD coronary artery. Mice were anaesthetized in an airtight chamber using 4% isoflurane, endotracheally intubated, and ventilated using a volume-control ventilator with 100% O2, supplemented with 2% vaporized isoflurane (Harvard Apparatus). Following lateral thoracotomy and pericardiectomy, the LAD coronary artery was identified along the anterior wall of the LV. Prolene sutures (6-0 non-absorbable) was used to ligate the LAD. Proper occlusion of the LAD artery was noted by three criteria: immediate blanching of the LV anterior wall myocardium below the ligature, echocardiographic assessment 7 days post-surgery showing an ejection fraction in the range of 45-65%, and histological analysis. Vicryl sutures (6-0 absorbable) were used to close the thoracic cavity. Drugs administrated one week after MI. Mice were subjected to echocardiography at serial time points and then euthanized at 3 months after ligation. Hearts were collected and processed for histology and immunohistochemistry. Fibrotic scar size was measured using MIQuant similar to the method described in Nascimento et al., PLOS One (2011) 6, e25045, the disclosure of which is incorporated herein in its entirety. Transthoracic echocardiography. Assessment of in vivo heart function on conscious, non-sedated mice was performed using a Vevo2100 micro-ultrasound system, M[…] probe (VisualSonics) at baseline, 1 week after injury, 1 week after drug administration, and 4, 8, 12 and 16 weeks after occlusion. Echocardiographic M-mode images were obtained from a parasternal short-axis view at the level of the papillary muscles. Left ventricular internal diameters at end diastole (LVIDd) and end systole (LVIDs) were measured from M-mode recordings. Six representative contraction cycles were selected for analysis, and average indexes (LVIDd, LVIDs and fractional shortening) were calculated for each mouse. All echocardiography measurements were performed in a blinded manner. Histology. Hearts were collected and fixed in 4% paraformaldehyde in PBS overnight at 4° C. and then processed for either paraffin or cryo embedding. […] Protein concentration was quantified using Pierce BCA protein assay kit (Pierce Biotechnology), with three biological replicates. […]

Test [6] concerns the target T1, HOXB13 (Mus musculus, UniProt P70321).
T1 construct: made in house; host or cells: E. coli Rosetta (DE3) pLysS
Put plainly: Thermal shift assay on purified HOXB13 DBD. Type of test: binding. On the procedure:
In another exemplary method, thermal shift analysis of aminoglycosides towards Meis1 and HOXB13 was performed. Initially, […] binding domains (DBDs) of Meis1 and HOXB13 were cloned, expressed, and purified to conduct the thermal shift assay (FIGS. 2A-2B). […] Protein Expression and Purification. mMeis1 and mHoxb13 were subcloned into pETDuet vector with noncleavable N-terminal 6×His tag and transformed into Rosetta (DE3) pLysS cells (Novagen). Target protein were expressed in cultures grown in autoinduction media at 18° C. overnight. The culture was harvested and sonicated in lysis buffer (20 mM Tris [pH=8.0], 1 M NaCl, 0.5 mM DTT, and supplemented with protease inhibitors). […] The eluate was concentrated and purified by gel filtration chromatography. The peak fractions were collected and concentrated to about . . . 0 mg/mL for crystallization screening.

[7] abbreviates: adult CD-1 mice, i.p., 2 weeks, paromomycin 200 mg/kg, paromomycin-neomycin 300 mg/kg, Anti-Cnx43/DAPI, compared with controls.
[8] abbreviates: adult mice, i.p., 2 weeks, Paro 200 mg/kg/day, Paro/Neo combo 300 mg/kg/day, compared to control.
Where [9] appears, read: adult mice, i.p., 2 weeks, Paro 200 mg/kg/day, Paro/Neo combo 300 mg/kg/day, compared to control-treated mice.
The mark [10] stands for this setting: two weeks after MI (one week after drug(s) injection).

T1 sequence (P70321 218-277 limits assumed): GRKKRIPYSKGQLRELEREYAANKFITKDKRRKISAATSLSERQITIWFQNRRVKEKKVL

Regarding `COc1ccc([C@@H]2CC(=O)c3c(O)cc(O[C@@H]4O[C@H](CO[C@@H]5O[C@@H](C)[C@H](O)[C@@H](O)[C@H]5O)[C@@H](O)[C@H](O)[C@H]4O)cc3O2)cc1O` [Hesperidin, hesperidin], the “luciferase transcriptional activity for Meis1” value in test [1] is recorded as “poor inhibitory profile”. Also, the “luciferase transcriptional activity for HOXB13” value in test [2] is recorded as “poor inhibitory profile”.

As for `NC[C@@H]1O[C@H](O[C@H]2[C@@H](O)[C@H](O[C@@H]3[C@@H](O)[C@H](N)C[C@H](N)[C@H]3O[C@H]3O[C@H](CO)[C@@H](O)[C@H](O)[C@H]3N)O[C@@H]2CO)[C@H](N)[C@@H](O)[C@@H]1O` [Paromomycin, paromomycin], the “luciferase transcriptional activity for Meis1” value in test [1] is recorded as “significant downregulation”. For the same molecule, in test [2], the “luciferase transcriptional activity for HOXB13” value is reported as “significant downregulation”. Besides, in test [3] (Mosaic Analysis with Double Markers (MADM) mice, lineage tracing, compared to control-treated mice), the “RFP+ and GFP+ single-labelled daughter cardiomyocytes” value is recorded as “significant increased”. In test [3] (setting [7]), the “bi- and multi-nucleation of isolated cardiomyocytes” value is recorded as “significant decrease”; the “mono-nucleation of isolated cardiomyocytes” value is on record as “significant increase”. For the same molecule, in test [3] (setting [8]), the “cardiomyocytes cell size via wheat germ agglutinin (WGA) staining” value is recorded as “significant reduction” and the “cardiomyocytes undergoing cytokinesis via Aurkb+ staining” value is on record as “significant increase”. In addition, in test [3] (adult mice, i.p., 2 weeks, Paro 200 mg/kg/day, Paro/Neo combo 300 mg/kg/day, compared to control-treated hearts), the “number of cardiomyocytes following dissociation of the heart by collagenase digestion” value was “significantly higher number”. In addition, in test [3] (setting [9]), the “heart weight (HW)/body weight (BW) ratio” value is given as “no significant difference” and the “pH3+ cardiomyocytes (mitosis marker)” value was “significant increase”. Besides, in test [4], the “cardiomyocyte cytokinesis marker (AurkB and anti-cTnT co-immunostaining)” value is on record as “significant increase”; the “cardiomyocyte mitosis marker (anti-pH3 and anti-cTnT co-immunostaining)” value is “significant increase”. In addition, the “left ventricular ejection fraction (LVEF) by echocardiography” value in test [5] (8 weeks post-surgery, drug i.p. from one week after injury, compared to control-treated mice) was “maintain the LVEF”. For the same molecule, the “wet to dry lung ratio” value in test [5] (MI mouse model, Paromomycin 200 mg/kg, i.p., Paromomycin-Neomycin 300 mg/kg, 8 weeks, compared to controls) is recorded as “significant decrease”. Besides, the “fibrotic scar (size)” value in test [5] (histological analysis, 8 weeks post-MI, compared to control-treated hearts) was “trending decline”. In test [5] (setting [10]), the “p15/16 proteins (cell cycle inhibitor), western blot” value was “decrease” and the “p21 protein (cell cycle inhibitor), western blot” value is given as “decrease”.

Turning to neomycin, the “luciferase transcriptional activity for Meis1” value in test [1] is listed as “significant downregulation”. Also, in test [2], the “luciferase transcriptional activity for HOXB13” value is listed as “significant downregulation”. For the same molecule, the “change in the melting temperature of HOXB13” value in test [6] is on record as “noticeable change”.
